Measurements published in US20240207455A1, “COMBINATION COMPRISING A NEUROTENSIN RECEPTOR BINDING COMPOUND AND NAPOX” (Fusion Pharmaceuticals Inc., priority 2021, published 2024).

Test system: subcutaneous AsPC1 tumors
Assay: Efficacy study in mice bearing subcutaneous AsPC1 tumors (tumor volume)
Assay type: in vivo, SWISS Nude mice
Settings: ^177Lu-IPN01087 20 MBq/mouse IV weekly x3; NAPOX: oxaliplatin 3.75 mg/kg, liposomal irinotecan 16 mg/kg, folinic acid 75 mg/kg, 5-FU 37.5 mg/kg weekly x2; Groups 2, 3, 5 vs vehicles
Description: The AsPC1 cell line was isolated from a metastatic site (ascites) from a patient (Chen WH. et al., In Vitro. 1982 January; 18(1):24-34).
Tumor cells were grown as monolayer at 37° C. in a humidified atmosphere (5% CO2, 95% air). The culture medium is RPMI 1640 containing glutamax supplemented with 10% heat inactivated fetal bovine serum, sodium pyruvate and hepes. For experimental use, tumor cells were detached from the culture flask using accutase and neutralized by addition of complete culture medium. The cells were counted and their viability was assessed by 0.25% trypan blue exclusion assay. Two frozen pellets of AsPC-1 tumor cells were prepared: one frozen cell pellet prepared during the in-vitro cell culture, and one frozen cell pellet prepared using the cell suspension used for tumor induction in mice.
One hundred fifty (150) healthy female SWISS Nude mice (Crl:NU(Ico)-Foxn1 nu), 6-7 weeks old at reception, were obtained from Charles River.
Tumors were induced by subcutaneous injection of ten million (10^7) AsPC-1 cells in 200 μL of RPMI 1640 medium containing matrigel (50:50, v:v, ref: 356237, BD Biosciences, France) into the right flank (in the axis of the heart) of 150 female animals. […]
The treatment efficacy was assessed in terms of the effects of the treatments on the tumor volumes of treated animals relative to control animals. […]

Substance: ^177Lu-zalsenertant tetraxetan [^177Lu-IPN01087]
- AsPC-1 tumor growth (tumor volume), FIG. 2: produced an antitumor effect when compared to the vehicles
